Test results: ChEMBL document CHEMBL5705903, “A DNA Hypomethylation Signature Predicts Antitumor Activity of LSD1 Inhibitors in SCLC” (Cancer Cell, 2015)
Activity calls are given as the source filed them. No cut-off for these calls is given here.

Key:
D(2) dopamine receptor = D(2) dopamine receptor (Homo sapiens, UniProt P14416); assay: Antagonist activity at Dopamine D2 receptor (unknown origin); format: functional
[1] = biological target: T1, Muscarinic acetylcholine receptor M1 (Homo sapiens, UniProt P11229); assay: Antagonist activity at Muscarinic M1 receptor (unknown origin); format: functional
T1 sequence (P11229 whole entry): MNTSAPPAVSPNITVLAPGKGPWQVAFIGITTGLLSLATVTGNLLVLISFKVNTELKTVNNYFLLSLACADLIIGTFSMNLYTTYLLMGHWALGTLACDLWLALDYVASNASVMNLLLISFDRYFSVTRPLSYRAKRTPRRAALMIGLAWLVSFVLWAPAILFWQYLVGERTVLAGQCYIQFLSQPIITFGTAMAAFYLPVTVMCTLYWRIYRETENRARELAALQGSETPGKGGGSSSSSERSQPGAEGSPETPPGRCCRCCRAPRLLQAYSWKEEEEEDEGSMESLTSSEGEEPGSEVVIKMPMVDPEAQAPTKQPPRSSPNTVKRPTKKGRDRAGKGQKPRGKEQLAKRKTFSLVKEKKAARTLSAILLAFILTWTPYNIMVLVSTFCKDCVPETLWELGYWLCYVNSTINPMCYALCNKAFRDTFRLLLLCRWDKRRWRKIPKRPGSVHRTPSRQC

Mu-type opioid receptor = Mu-type opioid receptor (Homo sapiens, UniProt P35372); assay: Agonist activity at MOR (unknown origin); format: functional
Sequence of Mu-type opioid receptor (P35372 whole entry): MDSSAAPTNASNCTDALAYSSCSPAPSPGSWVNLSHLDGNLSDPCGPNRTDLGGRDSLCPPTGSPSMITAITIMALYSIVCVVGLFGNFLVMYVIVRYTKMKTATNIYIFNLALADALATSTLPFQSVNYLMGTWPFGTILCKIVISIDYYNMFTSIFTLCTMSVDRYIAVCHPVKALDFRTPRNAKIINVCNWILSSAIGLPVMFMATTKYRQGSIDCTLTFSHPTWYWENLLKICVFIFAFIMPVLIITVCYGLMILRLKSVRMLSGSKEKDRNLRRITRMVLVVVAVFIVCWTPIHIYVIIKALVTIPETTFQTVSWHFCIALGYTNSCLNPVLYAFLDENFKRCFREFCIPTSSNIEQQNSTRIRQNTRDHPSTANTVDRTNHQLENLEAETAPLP

[2] = biological target: 5-hydroxytryptamine receptor 1B (Homo sapiens, UniProt P28222); assay: Antagonist activity at 5-HT1B (unknown origin); format: functional
Sequence of 5-hydroxytryptamine receptor 1B (P28222 whole entry): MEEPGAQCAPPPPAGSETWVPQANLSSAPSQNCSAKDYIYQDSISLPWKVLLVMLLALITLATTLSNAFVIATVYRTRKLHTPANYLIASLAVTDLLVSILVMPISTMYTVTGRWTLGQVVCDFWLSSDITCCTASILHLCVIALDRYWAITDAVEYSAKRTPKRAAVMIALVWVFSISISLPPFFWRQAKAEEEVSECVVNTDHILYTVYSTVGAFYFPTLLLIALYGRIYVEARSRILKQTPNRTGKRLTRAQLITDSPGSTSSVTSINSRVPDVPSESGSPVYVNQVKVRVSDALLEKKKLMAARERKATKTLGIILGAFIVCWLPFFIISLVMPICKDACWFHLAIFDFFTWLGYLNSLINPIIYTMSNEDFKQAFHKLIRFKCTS

[3] = biological target: T2, 5-hydroxytryptamine receptor 2A (Homo sapiens, UniProt P28223); assay: Agonist activity at 5-HT2A receptor (unknown origin); format: functional
T2 sequence (P28223 whole entry): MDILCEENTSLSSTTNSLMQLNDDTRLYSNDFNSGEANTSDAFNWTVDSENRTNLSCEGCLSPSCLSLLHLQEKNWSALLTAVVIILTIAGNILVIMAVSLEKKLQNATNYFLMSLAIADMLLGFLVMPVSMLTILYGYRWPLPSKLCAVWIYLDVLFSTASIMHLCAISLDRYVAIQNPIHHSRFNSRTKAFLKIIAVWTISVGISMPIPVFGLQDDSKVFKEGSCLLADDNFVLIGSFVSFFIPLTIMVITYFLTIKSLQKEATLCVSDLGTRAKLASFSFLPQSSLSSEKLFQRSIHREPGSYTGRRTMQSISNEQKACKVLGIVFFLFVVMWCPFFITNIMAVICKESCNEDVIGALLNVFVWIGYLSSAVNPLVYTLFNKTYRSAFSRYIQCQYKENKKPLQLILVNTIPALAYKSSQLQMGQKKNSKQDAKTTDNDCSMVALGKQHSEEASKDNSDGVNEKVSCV

[4] = biological target: T2, 5-hydroxytryptamine receptor 2A; assay: Antagonist activity at 5-HT2A receptor (unknown origin); format: functional
[5] = biological target: Amine oxidase [flavin-containing] B (Homo sapiens, UniProt P27338); assay: Inhibition of MAO-B (unknown origin)
Sequence of Amine oxidase [flavin-containing] B (P27338 whole entry): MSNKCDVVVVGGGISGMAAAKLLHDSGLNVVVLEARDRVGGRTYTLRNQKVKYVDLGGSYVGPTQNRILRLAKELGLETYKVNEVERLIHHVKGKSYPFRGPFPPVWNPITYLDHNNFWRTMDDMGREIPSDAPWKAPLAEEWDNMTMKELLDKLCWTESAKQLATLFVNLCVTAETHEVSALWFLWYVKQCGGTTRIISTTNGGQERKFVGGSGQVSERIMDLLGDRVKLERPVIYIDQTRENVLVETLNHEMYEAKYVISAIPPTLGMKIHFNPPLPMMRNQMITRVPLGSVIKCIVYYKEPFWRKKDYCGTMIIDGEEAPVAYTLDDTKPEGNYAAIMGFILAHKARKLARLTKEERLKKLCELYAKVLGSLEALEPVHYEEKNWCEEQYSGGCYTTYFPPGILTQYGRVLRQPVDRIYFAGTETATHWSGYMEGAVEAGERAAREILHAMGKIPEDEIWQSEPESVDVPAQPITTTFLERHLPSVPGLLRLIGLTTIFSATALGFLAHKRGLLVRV

[6] = Inhibition of COX (unknown origin); parameters: species or system Homo sapiens
[7] = biological target: cGMP-inhibited 3',5'-cyclic phosphodiesterase 3A (Homo sapiens, UniProt Q14432); assay: Inhibition of PDE3A (unknown origin)
Sequence of cGMP-inhibited 3',5'-cyclic phosphodiesterase 3A (Q14432 whole entry): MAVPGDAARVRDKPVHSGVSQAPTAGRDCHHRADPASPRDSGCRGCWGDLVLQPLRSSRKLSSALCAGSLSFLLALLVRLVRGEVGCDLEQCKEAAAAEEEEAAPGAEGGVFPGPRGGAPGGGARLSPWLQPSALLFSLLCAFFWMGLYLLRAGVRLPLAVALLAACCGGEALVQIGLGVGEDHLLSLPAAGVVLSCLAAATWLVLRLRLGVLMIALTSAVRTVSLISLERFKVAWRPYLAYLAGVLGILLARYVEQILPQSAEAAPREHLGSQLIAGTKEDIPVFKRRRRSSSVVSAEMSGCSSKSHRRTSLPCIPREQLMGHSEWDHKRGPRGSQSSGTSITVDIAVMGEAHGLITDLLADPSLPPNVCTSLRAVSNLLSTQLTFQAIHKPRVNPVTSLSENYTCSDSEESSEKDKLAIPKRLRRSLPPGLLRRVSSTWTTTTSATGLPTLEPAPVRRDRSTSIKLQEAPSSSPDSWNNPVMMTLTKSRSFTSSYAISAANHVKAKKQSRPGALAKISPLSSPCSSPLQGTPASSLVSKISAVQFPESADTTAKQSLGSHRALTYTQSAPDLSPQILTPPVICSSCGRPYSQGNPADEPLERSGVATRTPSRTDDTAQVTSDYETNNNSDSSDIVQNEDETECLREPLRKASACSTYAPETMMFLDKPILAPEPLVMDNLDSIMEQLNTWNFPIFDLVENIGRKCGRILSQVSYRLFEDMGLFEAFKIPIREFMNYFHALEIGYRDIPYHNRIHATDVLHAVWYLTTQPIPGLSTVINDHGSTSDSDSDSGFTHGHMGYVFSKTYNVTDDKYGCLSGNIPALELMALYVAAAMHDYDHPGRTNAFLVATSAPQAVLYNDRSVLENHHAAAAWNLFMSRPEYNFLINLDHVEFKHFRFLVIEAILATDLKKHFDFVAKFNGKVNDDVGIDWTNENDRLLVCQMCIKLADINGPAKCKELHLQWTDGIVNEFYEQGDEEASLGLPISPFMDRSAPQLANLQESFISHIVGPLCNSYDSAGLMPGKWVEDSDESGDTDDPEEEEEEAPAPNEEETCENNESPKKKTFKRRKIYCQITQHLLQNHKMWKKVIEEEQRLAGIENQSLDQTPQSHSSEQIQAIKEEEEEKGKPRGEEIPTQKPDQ

[8] = biological target: Voltage-gated potassium channel, IKs; KCNQ1(Kv7.1)/KCNE1(MinK) (Homo sapiens, UniProt P15382+P51787); assay: Inhibition of KCNQ1/minK (unknown origin); format: protein-complex assay
Sequence of Voltage-gated potassium channel, IKs; KCNQ1(Kv7.1)/KCNE1(MinK) (P51787 whole entry): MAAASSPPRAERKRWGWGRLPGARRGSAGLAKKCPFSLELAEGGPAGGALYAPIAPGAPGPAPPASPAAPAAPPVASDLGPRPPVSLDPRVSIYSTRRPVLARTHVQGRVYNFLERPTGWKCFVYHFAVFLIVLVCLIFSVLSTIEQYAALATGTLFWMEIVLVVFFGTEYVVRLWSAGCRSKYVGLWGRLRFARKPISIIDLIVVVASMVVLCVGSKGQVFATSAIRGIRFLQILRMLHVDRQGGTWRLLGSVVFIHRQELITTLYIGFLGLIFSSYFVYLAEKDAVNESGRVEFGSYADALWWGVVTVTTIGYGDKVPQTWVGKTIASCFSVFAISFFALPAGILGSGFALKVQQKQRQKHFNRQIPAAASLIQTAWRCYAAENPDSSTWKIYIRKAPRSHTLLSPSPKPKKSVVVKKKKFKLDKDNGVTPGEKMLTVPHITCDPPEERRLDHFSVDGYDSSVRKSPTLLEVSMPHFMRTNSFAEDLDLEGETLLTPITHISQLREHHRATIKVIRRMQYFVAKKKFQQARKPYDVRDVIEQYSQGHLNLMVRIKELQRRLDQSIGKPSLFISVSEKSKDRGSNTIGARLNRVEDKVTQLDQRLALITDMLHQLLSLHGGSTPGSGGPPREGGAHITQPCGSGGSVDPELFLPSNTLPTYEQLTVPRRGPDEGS

[9] = biological target: Serotonin 3 (5-HT3) receptor; assay: Inhibition of 5-HT3 receptor (unknown origin); format: protein-complex assay, Homo sapiens
[10] = Effect on cleaved PARP level in human NCI-H526 cells assessed as relative expression at 100 nM measured after 14 days by Western blot analysis (reference value: 0.66); format: functional; conditions: time 14 day
[11] = Effect on cleaved PARP level in human NCI-H526 cells assessed as fold change at 100 nM measured after 14 days by Western blot analysis (reference value: 1.00); format: functional; conditions: time 14 day
[12] = Effect on cleaved PARP level in human COLO-668 cells assessed as fold change at 100 nM measured after 14 days by Western blot analysis (reference value: 1.00); format: functional; conditions: time 14 day
[13] = Effect on cleaved PARP level in human NCI-H1694 cells assessed as fold change at 100 nM measured after 7 days by Western blot analysis (reference value: 1.00); format: functional; conditions: time 7 day
[14] = Effect on cleaved PARP level in human NCI-H69 cells assessed as relative expression at 100 nM measured after 14 days by Western blot analysis (reference value: 0.03); format: functional; conditions: time 14 day
[15] = Effect on cleaved PARP level in human NCI-H510 cells assessed as relative expression at 10 nM measured after 10 days by Western blot analysis (reference value: 0.02); format: functional, NCI-H510A; conditions: time 10 day
[16] = Effect on cleaved PARP level in human NCI-H889 cells assessed as relative expression at 1000 nM measured after 10 days by Western blot analysis (reference value: 0.33); format: functional; conditions: time 10 day
[17] = Effect on cleaved PARP level in human NCI-H889 cells assessed as relative expression at 100 nM measured after 14 days by Western blot analysis (reference value: 0.94); format: functional; conditions: time 14 day
[18] = Effect on cleaved PARP level in human NCI-H889 cells assessed as fold change at 10 nM measured after 7 days by Western blot analysis (reference value: 1.00); format: functional; conditions: time 7 day
[19] = Effect on cleaved PARP level in human NCI-H889 cells assessed as fold change at 100 nM measured after 7 days by Western blot analysis (reference value: 1.00); format: functional; conditions: time 7 day
[20] = Effect on cleaved PARP level in human NCI-H889 cells assessed as fold change at 1000 nM measured after 7 days by Western blot analysis (reference value: 1.00); format: functional; conditions: time 7 day
[21] = Effect on cleaved PARP level in human NCI-H2171 cells assessed as relative expression at 100 nM measured after 10 days by Western blot analysis (reference value: 0.02); format: functional; conditions: time 10 day
[22] = Effect on cleaved PARP level in human NCI-H146 cells assessed as relative expression at 1000 nM measured after 7 days by Western blot analysis (reference value: […]); format: functional; conditions: time 7 day
[23] = Toxicity in dog assessed as suppression of erythroid maturation in bone marrow measured for 28 days; parameters: species or system Canis lupus familiaris; conditions: in vivo, 672 h, time 28 day
[24] = Toxicity in dog assessed as morbidity measured for 28 days; parameters: species or system Canis lupus familiaris; conditions: in vivo, 672 h, time 28 day
[25] = Toxicity in dog assessed as effect on ECG measured for 28 days; parameters: species or system Canis lupus familiaris; conditions: in vivo, 672 h, time 28 day
NCI-H526 [26] = assay: Antitumor activity against human NCI-H526 cells xenografted in nude mouse assessed as mean tumor volume at 0.5 mg/kg, po administered daily measured twice weekly (reference value: 2359 +/- 247 mm3); format: functional
NCI-H526 [27] = assay: Effect on NCAM gene expression in human NCI-H526 cells at 1 uM measured after 4 days by qRT-PCR analysis; format: functional, cell-based; conditions: time 4.0 day
NCI-H446 [28] = assay: Effect on NCAM gene expression in human NCI-H446 cells at 1 uM measured after 4 days by qRT-PCR analysis; format: functional, cell-based; conditions: time 4.0 day
NCI-H146 = assay: Effect on SYP gene expression in human NCI-H146 cells at 1 uM measured after 4 days by qRT-PCR analysis; format: functional, cell-based; conditions: time 4.0 day
COLO-668 = assay: Effect on SYP gene expression in human COLO-668 cells at 1 uM measured after 4 days by qRT-PCR analysis; format: functional, cell-based; conditions: time 4.0 day
NCI-H446 [29] = assay: Effect on SYP gene expression in human NCI-H446 cells at 1 uM measured after 4 days by qRT-PCR analysis; format: functional, cell-based; conditions: time 4.0 day
NCI-H526 [30] = assay: In vivo inhibition of LSD1 in human NCI-H526 cells xenografted in nude mouse assessed as change in ZEB1 gene expression administrated daily for 5 days by qRT-PCR analysis; format: functional, organism-based; conditions: dose 0.02-135 mg/kg, time 5.0 day
[31] = AUC (0 to t) in mouse at 5.5 mg/kg, ip by HPLC/MS/MS analysis; format: ADME, organism-based; conditions: in vivo
[32] = AUC (0 to infinity) in mouse at 5.5 mg/kg, ip by HPLC/MS/MS analysis; format: ADME, organism-based; conditions: in vivo

Sequence of D(2) dopamine receptor (P14416 whole entry): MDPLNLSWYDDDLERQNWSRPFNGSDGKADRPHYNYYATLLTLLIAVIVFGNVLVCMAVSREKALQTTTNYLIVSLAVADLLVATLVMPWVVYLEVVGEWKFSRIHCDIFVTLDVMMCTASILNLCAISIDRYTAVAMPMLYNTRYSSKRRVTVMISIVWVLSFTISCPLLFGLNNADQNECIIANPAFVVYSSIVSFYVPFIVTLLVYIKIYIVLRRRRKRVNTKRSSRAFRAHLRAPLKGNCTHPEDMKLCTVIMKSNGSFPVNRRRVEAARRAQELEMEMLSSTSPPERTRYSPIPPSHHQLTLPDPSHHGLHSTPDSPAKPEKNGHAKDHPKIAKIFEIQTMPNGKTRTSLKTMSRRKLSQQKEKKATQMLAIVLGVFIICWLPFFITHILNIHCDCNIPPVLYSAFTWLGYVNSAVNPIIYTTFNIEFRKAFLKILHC

Question: Which EC50 (D(2) dopamine receptor) does the source give for `O=C(O)c1ccc(CN2CCC(CN[C@@H]3C[C@H]3c3ccccc3)CC2)cc1` [GSK2879552] here?
Answer: > 100 µM

Question: And the EC50 [1]?
Answer: > 16 µM

Question: What about the EC50 (Mu-type opioid receptor) of the same molecule?
Answer: > 100 µM

Question: What about the EC50 [2] of the same molecule?
Answer: > 30 µM

Question: And the EC50 [3]?
Answer: > 40 µM

Question: What about the EC50 [4] of the same molecule?
Answer: 20 µM

Question: What about the IC50 [5] of the same molecule?
Answer: 20 µM

Question: What about the IC50 [6] of the same molecule?
Answer: 25 µM

Question: What about the IC50 [7] of the same molecule?
Answer: > 100 µM

Question: What about the IC50 [8] of the same molecule?
Answer: > 25 µM

Question: And the IC50 [9]?
Answer: > 30 µM

Question: What about the Activity [10] of the same molecule?
Answer: 0.93

Question: What about the “fold change (FC)” value [11] of the same molecule?
Answer: 1.41

Question: And the “fold change (FC)” value [12]?
Answer: 0.25

Question: What about the “fold change (FC)” value [13] of the same molecule?
Answer: 1.11

Question: And the Activity [14]?
Answer: 0.16

Question: What about the Activity [15] of the same molecule?
Answer: 0.08

Question: And the Activity [16]?
Answer: 0.91

Question: And the Activity [17]?
Answer: 2.36

Question: And the “fold change (FC)” value [18]?
Answer: 0.09

Question: What about the “fold change (FC)” value [19] of the same molecule?
Answer: 1.25

Question: And the “fold change (FC)” value [20]?
Answer: 1.92

Question: And the Activity [21]?
Answer: 0.02

Question: And the Activity [22]?
Answer: 2.43

Question: And the Activity [23]?
Answer: Toxic

Question: What about the Activity [24] of the same molecule?
Answer: Toxic

Question: And the Activity [25]?
Answer: Toxic

Question: And the Activity (NCI-H526 [26])?
Answer: 1319 mm3

Question: And the Activity (NCI-H526 [27])?
Answer: inactive

Question: What about the Activity (NCI-H446 [28]) of the same molecule?
Answer: inactive

Question: And the Activity (NCI-H146)?
Answer: inactive

Question: What about the Activity (COLO-668) of the same molecule?
Answer: inactive

Question: What about the Activity (NCI-H446 [29]) of the same molecule?
Answer: inactive

Question: What about the inhibition (NCI-H526 [30]) of the same molecule?
Answer: Dose-Dependent Effect

Question: What does the source list for `c1ccc([C@@H]2C[C@H]2NC2CCNCC2)cc1`?
Answer: EC50 (D(2) dopamine receptor): > 100 µM; EC50 [1]: > 30 µM; EC50 (Mu-type opioid receptor): > 100 µM; EC50 [2]: > 100 µM; EC50 [3]: > 25 µM; EC50 [4]: 16 µM; IC50 [6]: > 100 µM; IC50 [7]: > 100 µM; IC50 [8]: > 25 µM; IC50 [9]: > 30 µM; AUC(0-t) [31]: 871 ng·h/mL; AUC(0-inf) [32]: 938 ng·h/mL
